Tests used:
[1] = tested on: CYP-induced alopecia mice; test: Skin monitoring of hair growth with a digital dermatoscope in CYP-induced alopecia mice; type: in vivo, C57BL/6J mice; settings: topical, all concentrations of decursin (1, 10, 100 μM) or 0.1% DEX, FIG. 1
Description: (§1) All animal testing procedures were approved by the Laboratory Animal Care and Use Committee of Kyung Hee University (KHUASP(SE)-13-046). 5-week-old male C57BL/6J mice were purchased from Raonbio Co., Ltd. (Yongin, Korea). All mice were kept in plastic cages at 22±1° C. under 50±5% humidity with 12 hours of light-dark cycles. After 1 week of adaptation, mice were randomly assigned to 6 groups: (1) CTR, normal control group, (2) CYP, cyclophosphamide-induced alopecia group, (3) DEX, dexamethasone (DEX) treated in CYP-induced alopecia mice as positive controls, (4) D1, 1 μM decursin treated in CYP-induced alopecia mice, (5) D10, 10 μM decursin treated in CYP-induced alopecia mice, and (6) D100, 100 μM decursin treated in CYP-induced alopecia mice.
(§2) To synchronize the phases of the hair growth cycle, the dark hairs on the dorsal skin of all mice except the CTR group were shaved on day 0 using a shaving cream. 9 days later, 150 mg/kg of CYP (Sigma-Aldrich, MO, USA) was dissolved in saline and injected one time intraperitoneally into all mice except the CTR group. Injection of CYP induced the stage of hair follicles to turn into dystrophic catagen. From day 9 to day 16, 100 μL of 1, 10 and 100 μM decursin (Sigma-Aldrich) in saline containing 0.1% dimethyl sulfoxide was topically treated onto the shaved dorsal skin once a day. […]

[2] = tested on: hair follicles of dorsal skin tissues; test: Histological analysis (H&E) of dorsal skin hair follicles in CYP-induced alopecia mice; type: in vivo, C57BL/6J mice; settings: topical decursin, FIG. 2
Description: as §1, §2

[3] = tested on: keratinocyte growth factor (KGF); test: Immunofluorescence assay of KGF+ expression in dorsal skin tissue of CYP-induced alopecia mice; type: in vivo, C57BL/6J mice; settings: CIA mice, FIG. 3
Description: as §1
To synchronize the phases of the hair growth cycle, the dark hairs on the dorsal skin of all mice except the CTR group were shaved on day 0 using a shaving cream. 9 days later, 150 mg/kg of CYP (Sigma-Aldrich, MO, USA) was dissolved in saline and injected one time intraperitoneally into all mice except the CTR group. Injection of CYP induced the stage of hair follicles to turn into dystrophic catagen. From day 9 to day 16, 100 μL of 1, 10 and 100 μM decursin (Sigma-Aldrich) in saline containing 0.1% dimethyl sulfoxide was topically treated onto the shaved dorsal skin once a day. As a positive control, 0.1% DEX was administered topically to the shaved area on days 1, 3, 5, 7, and 9 to 16. Physiological saline was treated to the CTR and CYP groups during the experiment. […] on day 17, all mice were sacrificed under anesthesia.
Paraffin tissue sections were hydrated with xylene and ethanol, followed by blocking with 1% bovine serum albumin (BSA). The slides were incubated overnight at 4° C. with primary anti-rabbit keratinocyte growth factor (KGF) antibody. Secondary HRP-conjugated fluorescent antibody was treated onto tissue slides for 1 hour at room temperature.

[4] = tested on: keratinocyte growth factor (KGF); test: Immunoblotting of KGF protein expression in skin tissues of CYP-induced alopecia mice; type: in vivo, C57BL/6J mice; settings: CIA mice; 100 μM decursin topical; FIG. 4
[5] = tested on: caspase-3; test: Immunoblotting of caspase-3 in TNF-α-stimulated HaCaT keratinocytes; type: cell-based, Human; settings: HaCaT cells; 10 nM decursin; 100 ng/mL TNF-α, 24 hours; FIG. 5
Description: (§3) Human keratinocyte HaCaT cells were grown at 37° C. under atmosphere with 95% humidity in the presence of 5% CO2, in Dulbecco's modified Eagle's medium (DMEM, Gibco; Thermo Fisher Scientific, Inc., Waltham, Mass., USA) supplemented with 10% v/v fetal bovine serum (FBS, Gibco), 2 mM glutamine, 100 IU/ml penicillin, and 100 μg/mL of streptomycin (Gibco). HaCaT cells were dispensed into 6-well plates by 1×10^6 cells/wells. After stabilization, 1 μM DEX and 0.1, 1, and 10 nM decursin were treated in the presence of 100 ng/mL of TNF-α for 24 hours.
(§4) Proteins were extracted from the collected skin tissues and HaCaT cells using RIPA lysis buffer (Tech & Innovation, Gangwon, Korea) containing a protease inhibitor cocktail (Roche, Hoffmann, USA). Lysates were quantified by the Bradford method and denatured with dodecyl sulfate buffer at 98° C. for 5 minutes. Proteins were electrophoresed onto a polyvinylidene fluoride membrane. The membranes were incubated continuously with primary anti-caspase-3, -7, and -8, followed with secondary HRP-conjugated anti-rabbit and anti-mouse antibodies.

[6] = tested on: caspase-7; test: Immunoblotting of caspase-7 in TNF-α-stimulated HaCaT keratinocytes; type: cell-based, Human; settings: HaCaT cells; 10 nM decursin; 100 ng/mL TNF-α, 24 hours; FIG. 5
Description: as §3, §4

[7] = tested on: caspase-8; test: Immunoblotting of caspase-8 in TNF-α-stimulated HaCaT keratinocytes; type: cell-based, Human; settings: HaCaT cells; 10 nM decursin; 100 ng/mL TNF-α, 24 hours; FIG. 5
Description: as §3, §4

[8] = tested on: PI3K; test: Expression of PI3K in decursin-treated keratinocytes; type: cell-based, Human; settings: TNF-α
[9] = tested on: AKT; test: Expression of AKT in decursin-treated keratinocytes; type: cell-based, Human; settings: TNF-α
[10] = tested on: ERK; test: Expression of ERK in decursin-treated keratinocytes; type: cell-based, Human; settings: TNF-α
[11] = tested on: p38; test: Expression of p38 in decursin-treated keratinocytes; type: cell-based, Human; settings: TNF-α

CC(C)=CC(=O)O[C@H]1Cc2cc3ccc(=O)oc3cc2OC1(C)C [decursin]
hair growth on the dorsal side (dermatoscope), compared to CYP group [1]: hair growth was observed
hair follicle cycle stage (histology) [2]: hair follicles were in the anagen
shape of the ampulla of hair follicles, compared to CYP group [2]: normalized
KGF+ expression in the skin tissue (immunofluorescence) ([3]; 1 μM decursin topical): increased
KGF+ expression in the skin tissue (immunofluorescence) ([3]; 10 μM decursin topical): increased
KGF+ expression in the skin tissue (immunofluorescence) ([3]; 100 μM decursin topical): increased
protein expression of KGF in skin tissues [4]: significantly increased
rate of decrease of TNF-α-induced caspase-3 protein level [5]: 30.41%
rate of decrease of TNF-α-induced caspase-7 protein level [6]: 48.27%
rate of decrease of TNF-α-induced caspase-8 protein level [7]: 41.07%
expression of PI3K [8]: suppression
expression of AKT [9]: suppression
expression of ERK [10]: suppression
expression of p38 [11]: suppression

Source: patent US20230157993A1, “PHARMACEUTICAL COMPOSITION FOR TREATING OR PREVENTING ALOPECIA INCLUDING DECURSIN” (University-Industry Cooperation Group of Kyung Hee …, priority 2021, published 2023)
